Measurements taken from patent publication US12653774B2, “Topical compositions and methods for using same” (MARY KAY INC., priority 2022, dated 2026).

Biological target: T1, TRPV-1 (Rattus norvegicus, UniProt O35433)
T1 construct: host or cells: PC 12 cells
Experiment: Capsaicin induced TRPV-1 mediated calcium flux assay (Fura-2AM) in PC 12 cells
Assay type: cell-based
Protocol: (§1) Briefly, Ca^2+ influx was used as a measure of TRPV-1 activity. PC 12 cells (ATCC CRL-1721) were pre-incubated for 4 hours at 37° C. with the respective noted compounds (e.g., plankton extract (test), or capsazepine (positive control)). Following pre-incubation, treatment media was removed and cells were incubated with 100 μl of 0.67 μM Fura-2-acetoxymethyl ester ((Fura-2AM), a high affinity, intracellular calcium indicator that is ratiometric and UV light—excitable) for 1 hour at 37° C. After incubation, cells were treated with 200 μM of capsaicin to induce TRPV-1 mediated Ca^2+ flux response and fluorescence readings were taken every 7 seconds for 10 minutes at 360/460 nm. Data was normalized to controls, plotted as shown, and area under the curve (AUC) values were determined (see Table 2).
as §1, with “test compounds.” for “noted compounds (e.g., plankton extract (test), or capsazepine (positive control)).”, “Fura-2AM” for “Fura-2-acetoxymethyl ester ((Fura-2AM), a high affinity, intracellular calcium indicator that is ratiometric and UV light—excitable)”, “AUC” for “area under the curve (AUC)”
Ingredient samples were analyzed for their ability to inhibit calcium flux production in PC 12 cells (ATCC CRL-1721). PC 12 cells were maintained and passaged according to the manufacturer's recommended guidelines. For experiments, 1×10^5 cells/well were plated in 96 well black flat bottom plates. Fura-2-Acetoxymethyl ester (Fura-2AM) calcium detection assay kit (Cayman Chemical #14591) was used to detect calcium in the cells post treatment. Capsaicin (Sigma #M202) was used to trigger a response, and capsazepine (Sigma #C191) was used as a positive control. In brief, Ca2^+ influx was used as a measure of TRPV-1 activity. PC 12 cells (ATCC CRL-1721) were pre-incubated for 4 hours at 37° C. with the respective test compounds. Following pre-incubation, treatment media was removed and cells were incubated with 100 μl of 0.67 μM Fura-2AM for 1 hour at 37° C. After incubation, cells were treated with 200μM of capsaicin to induce TRPV-1 mediated Ca^2+ flux response and fluorescence readings were taken every 7 seconds for 10 minutes at 360/460 nm. Following the test period, buffer was removed and 100 μl diluted MTS reagent was added to each well. Cells were incubated for 15 to 30 minutes at 37° C. 5% CO2, and plates were then read at 490 nm. Cell viability was assessed prior to analyzing for calcium flux.
Fluorescence test data was normalized to controls to generate area under the curve (AUC) values. For each control and test, fluorescence arbitrary units (AU) were normalized to controls for timepoints 0, and 0.5-9 minutes. The normalized data was plotted on an XY graph using GraphPad Prism software to generate a calcium flux curve, with time on the X axis, and normalized AU on the Y axis. The AUC was then calculated for the untreated control, and net AUC was determined for each test and control condition.

[1] = 400 μM, pre-incubation 4 hours, then 200 μM capsaicin, positive control

T1 sequence (O35433 whole entry): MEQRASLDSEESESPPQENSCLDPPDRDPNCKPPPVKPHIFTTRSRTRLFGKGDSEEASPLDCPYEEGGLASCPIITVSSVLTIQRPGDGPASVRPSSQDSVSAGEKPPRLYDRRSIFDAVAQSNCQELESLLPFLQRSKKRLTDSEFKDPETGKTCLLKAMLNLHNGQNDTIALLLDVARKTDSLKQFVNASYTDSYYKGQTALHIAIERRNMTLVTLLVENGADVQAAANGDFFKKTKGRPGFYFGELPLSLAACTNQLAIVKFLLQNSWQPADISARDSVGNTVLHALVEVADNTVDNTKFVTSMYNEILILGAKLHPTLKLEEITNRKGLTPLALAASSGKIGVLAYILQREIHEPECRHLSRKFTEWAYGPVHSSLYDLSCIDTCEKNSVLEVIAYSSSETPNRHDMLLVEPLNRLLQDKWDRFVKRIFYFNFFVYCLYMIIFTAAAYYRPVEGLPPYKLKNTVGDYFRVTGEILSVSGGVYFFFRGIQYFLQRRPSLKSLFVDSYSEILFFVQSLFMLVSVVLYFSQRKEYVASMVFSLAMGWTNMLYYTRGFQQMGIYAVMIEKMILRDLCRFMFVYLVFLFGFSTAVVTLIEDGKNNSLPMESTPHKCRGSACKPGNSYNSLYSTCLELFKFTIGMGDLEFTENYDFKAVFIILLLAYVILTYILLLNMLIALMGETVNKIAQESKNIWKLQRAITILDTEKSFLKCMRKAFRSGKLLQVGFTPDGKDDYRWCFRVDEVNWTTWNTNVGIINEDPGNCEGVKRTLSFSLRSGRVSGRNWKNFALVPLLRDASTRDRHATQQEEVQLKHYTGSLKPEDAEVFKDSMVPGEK

Row | Structure (SMILES) | Delta compared to untreated (200 μM, net AUC vs untreated baseline 9.009, negative control) | AUC (200 μM, normalized Ca2+ flux curve, PC 12 cells, negative control) | Percentage activity compared to positive control (200 μM, relative to capsazepine 400 μM, negative control) [%] | AUC [1] | Delta compared to untreated [1] | Percentage activity compared to positive control (400 μM, the positive control itself)
1 | COc1cc(CNC(=O)CCCC/C=C/C(C)C)ccc1O [Capsaicin] | 0.944 | 9.953 | −453.56 | – | – | –
2 | Oc1cc2c(cc1O)CN(C(=S)NCCc1ccc(Cl)cc1)CCC2 [Capsazepine, capsazepine] | – | – | – | 8.742 | −0.267 | NA (0) %
